Experiments:
Cbl-b [1] = target: T1, Cbl-b (Homo sapiens, UniProt Q13191); experiment: Cbl-b inhibition assay (Cbl-b activity assay, FRET, Biological Example 1; 100 mM NaCl, 60 nM Src kinase); assay type: biochemical; conditions: upper bound stated in text lists; read-out: IC50 values in the Cbl-b inhibition assay of Biological Example 1
How it was run: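 FRET read-out: loss of signal marks inhibition. Mix = biotin-Avi-Cbl-b (N-term), Src kinase, UbcH5B-Ub(Bodipy-FL, irreversible conjugate), streptavidin-Tb, assay buffer.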

Cbl-b [2] = target: T1, Cbl-b; experiment: Cbl-b activity assay (Cbl-b inhibition assay), TR-FRET of Cbl-b interaction with UbcH5B-Ub; assay type: biochemical
How it was run: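 TR-FRET readout of Cbl-b binding to Bodipy-fluorescein N-terminally labeled Ub conjugated to UbcH5B C85K, measured with compound present. After compound incubation, 60 nM Src kinase with 1 mM ATP and 5 mM MgCl2 (final) was added for 1.5 h, then a further 1 h incubation; asterisked values used 50 mM NaCl buffer and 30 nM Src.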

Cbl-b (residues 36-427) = Cbl-b (residues 36-427) (Homo sapiens, UniProt Q13191); experiment: Cbl-b binding assay (SPR, Biacore T200); conditions: 20° C., 1:1 binding model
Sequence of Cbl-b (residues 36-427) (Q13191 36-427): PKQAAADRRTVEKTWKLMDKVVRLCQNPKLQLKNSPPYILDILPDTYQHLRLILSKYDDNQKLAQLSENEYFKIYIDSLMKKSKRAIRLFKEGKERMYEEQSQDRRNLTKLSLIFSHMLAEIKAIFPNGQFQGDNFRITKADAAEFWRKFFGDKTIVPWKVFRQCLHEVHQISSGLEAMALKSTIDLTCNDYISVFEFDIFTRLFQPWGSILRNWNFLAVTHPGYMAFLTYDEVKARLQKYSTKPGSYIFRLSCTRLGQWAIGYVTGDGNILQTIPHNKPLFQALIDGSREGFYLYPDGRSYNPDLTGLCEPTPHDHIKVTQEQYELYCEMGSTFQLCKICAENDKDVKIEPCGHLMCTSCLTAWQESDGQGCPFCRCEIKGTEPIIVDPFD
Description: SPR data was collected on a Biacore T200 (GE Healthcare) using a NeutrAvidin (Invitrogen) capture surface that was generated on a polycarboxylate hydrogel sensor chip of medium charge density (XanTec Bioanalytics GmbH) at 20° C. The surface was prepared using 20 mM HEPES, pH 7.5, 100 mM NaCl, 0.5 mM TCEP, 0.01% Triton X-100 as the immobilization buffer. Neutravidin was coupled to the sensor chip through EDC/NHS amine coupling. All steps were performed using a flow rate of 10 μl/min. First, the chip was preconditioned with a 3-min injection of 1 M NaCl, 0.1 M Borate followed by a 10-min equilibration in immobilization buffer. The surface was activated by a 5-min injection of 100 mM EDC/50 mM NHS. Next, 250 μg/mL NeutrAvidin buffered in 10 mM sodium acetate buffer, pH 5.0 was injected over the surface for 2 min. The surface was deactivated with 1 M Tris, pH 8.5 for 7 min then re-equilibrated in immobilization buffer for 7 min. […] Flow cell 1 served as a reference surface and was prepared without protein. All binding measurements were made in 20 mM HEPES, pH 7.5, 100 mM NaCl, 0.5 mM TCEP, 0.01% Triton X-100, 2% DMSO (referred as assay buffer) at 20° C. Compounds, prepared in assay buffer, were diluted from atop concentration of either 100 μM or 50 μM using either a 2- or 3-fold dilution scheme containing 8 or 10 points. Samples were injected for 50 s at 50 μl/min. Dissociation time varied from 90-180 s, depending on anticipated potency. The surface was regenerated by injection of 0.3 M NaCl, prepared in assay buffer for 20 s at 10 μl/min. Positive and negative control samples were run between each compound to monitor surface integrity.
Column marked with an asterisk (*) were tested as described above with assay buffer containing 50 mM NaCl instead of 100 mM NaCl and 30 nM Src kinase instead of 60 nM Src kinase. The resulting data for the Cbl-b binding assay was solvent corrected and double referenced prior to analysis. All data were globally fit to a steady-state affinity and kinetic binding model where applicable). Fit parameters were derived from a 1:1 binding model using the Biacore T200 Evaluation Software V2.0 (GE Healthcare) (Table 2).

[3] = * assay buffer containing 50 mM NaCl instead of 100 mM NaCl and 30 nM Src kinase instead of 60 nM, read-out: Cbl-b activity IC50 (μM)*
[4] = assay buffer with 100 mM NaCl, 60 nM Src kinase, read-out: Cbl-b activity IC50

T1 sequence (Q13191 36-427): as above

Compound | IC50 (Cbl-b [1]) [µM] | IC50 (Cbl-b [2]; [3]) [µM] | IC50 (Cbl-b [2]; [4]) [µM] | Kd (Cbl-b (residues 36-427)) [µM]
Cc1cc(C(=O)Nc2cccc([C@H](C)Sc3nncn3C)c2)ncc1Cl [Compound 34, (S)-5-Chloro-4-methyl-N-(3-(1-((4-methyl-4H-1,2,4-triazol-3-yl)thio)ethyl)phenyl)picolinamide] | ≤ 0.5 | 0.301 to 1 | 0.301 to 1 | 1 to 3
C[C@H](Sc1nncn1C)c1cccc(NC(=O)c2cc(C(F)(F)F)c(Cl)cn2)c1 [Compound 40, (S)-5-Chloro-N-(3-(1-((4-methyl-4H-1,2,4-triazol-3-yl)thio)ethyl)phenyl)-4-(trifluoromethyl)picolinamide] | ≤ 10 | 3 to 10 | 1 to 3 | 3 to 10
Cc1nc(C(=O)Nc2cccc([C@H](C)Sc3nncn3C)c2)cs1 [Compound 41, (S)-2-Methyl-N-(3-(1-((4-methyl-4H-1,2,4-triazol-3-yl)thio)ethyl)phenyl)thiazole-4-carboxamide] | ≤ 10 |  | 1 to 3 | 1 to 3
C[C@H](Sc1nncn1C)c1cccc(NC(=O)c2cccc(C(F)(F)F)c2F)c1 [Compound 42, (S)-2-Fluoro-N-(3-(1-((4-methyl-4H-1,2,4-triazol-3-yl)thio)ethyl)phenyl)-3-(trifluoromethyl)benzamide] | ≤ 1 |  | 0.301 to 1 | 0.301 to 1
COc1c(C(=O)Nc2cccc([C@H](C)Sc3nncn3C)c2)cccc1C(F)(F)F [Compound 43, (S)-2-Methoxy-N-(3-(1-((4-methyl-4H-1,2,4-triazol-3-yl)thio)ethyl)phenyl)-3-(trifluoromethyl)benzamide] | ≤ 10 |  | 3 to 10 | > 10
C[C@H](Sc1nncn1C)c1cccc(NC(=O)c2cccc(-c3ccn[nH]3)c2)c1 [Compound 44, (S)-N-(3-(1-((4-Methyl-4H-1,2,4-triazol-3-yl)thio)ethyl)phenyl)-3-(1H-pyrazol-5-yl)benzamide] | ≤ 10 |  | 3 to 10 | 3 to 10
C[C@H](Sc1nncn1C)c1cccc(NC(=O)c2cccc(-c3ccnn3C)c2)c1 [Compound 45, 3-(1-Methyl-1H-pyrazol-5-yl)-N-[3-[(1S)-1-[(4-methyl-4H-1,2,4-triazol-3-yl)sulfanyl]ethyl]phenyl]benzamide] | ≤ 10 |  | 3 to 10 | 3 to 10
C[C@H](Sc1nncn1C)c1cccc(NC(=O)c2cc(CCO)ccn2)c1 [Compound 46, (S)-4-(2-Hydroxyethyl)-N-(3-(1-((4-methyl-4H-1,2,4-triazol-3-yl)thio)ethyl)phenyl)picolinamide] | ≤ 10 |  | 1 to 3 | 3 to 10
CNc1cccc(C(=O)Nc2cccc([C@H](C)Sc3nncn3C)c2)c1 [Compound 47, (S)-N-(3-(1-((4-Methyl-4H-1,2,4-triazol-3-yl)thio)ethyl)phenyl)-3-(methylamino)benzamide] | ≤ 10 |  | 3 to 10 | 3 to 10
C[C@H](Sc1nncn1C)c1cccc(NC(=O)c2nc(C(F)(F)F)ccc2N)c1 [Compound 49, (S)-3-Amino-N-(3-(1-((4-methyl-4H-1,2,4-triazol-3-yl)thio)ethyl)phenyl)-6-(trifluoromethyl)picolinamide] | ≤ 10 |  | 1 to 3 | 1 to 3
Cc1cc(C(=O)Nc2cccc([C@H](C)Sc3nncn3C)c2)[nH]c(=O)c1 [Compound 50, (S)-4-Methyl-N-(3-(1-((4-methyl-4H-1,2,4-triazol-3-yl)thio)ethyl)phenyl)-6-oxo-1,6-dihydropyridine-2-carboxamide] | ≤ 10 |  | 3 to 10 | > 10
Cc1cnc(C(=O)Nc2cccc([C@H](C)Sc3nncn3C)c2)cc1C(F)(F)F [Compound 52, (S)-5-methyl-N-(3-(1-((4-methyl-4H-1,2,4-triazol-3-yl)thio)ethyl)phenyl)-4-(trifluoromethyl)picolinamide] | ≤ 10 |  | 3 to 10 | > 10
Cc1cnc(C(=O)Nc2cccc([C@H](C)Sc3nncn3C)c2)cc1C1CC1 [Compound 53, (S)-4-cyclopropyl-5-methyl-N-(3-(1-((4-methyl-4H-1,2,4-triazol-3-yl)thio)ethyl)phenyl)picolinamide] | ≤ 10 |  | 3 to 10 | 3 to 10
CC(=O)Nc1ccnc(C(=O)Nc2cccc([C@H](C)Sc3nncn3C)c2)c1 [Compound 59, (S)-4-acetamido-N-(3-(1-((4-methyl-4H-1,2,4-triazol-3-yl)thio)ethyl)phenyl)picolinamide] | ≤ 10 |  | 1 to 3 | 3 to 10
CNc1ccnc(C(=O)Nc2cccc([C@H](C)Sc3nncn3C)c2)c1 [Compound 60, (S)-N-(3-(1-((4-methyl-4H-1,2,4-triazol-3-yl)thio)ethyl)phenyl)-4-(methylamino)picolinamide] | ≤ 10 |  | 1 to 3 | 3 to 10
C[C@H](Sc1nncn1C)c1cccc(NC(=O)c2cc(C(F)(F)F)cc(Cl)n2)c1 [Compound 66, (S)-6-chloro-N-(3-(1-((4-methyl-4H-1,2,4-triazol-3-yl)thio)ethyl)phenyl)-4-(trifluoromethyl)picolinamide] | ≤ 10 |  | 1 to 3 | 3 to 10
COc1cc(C(F)(F)F)cc(C(=O)Nc2cccc([C@H](C)Sc3nncn3C)c2)n1 [Compound 73, (S)-6-methoxy-N-(3-(1-((4-methyl-4H-1,2,4-triazol-3-yl)thio)ethyl)phenyl)-4-(trifluoromethyl)picolinamide] | ≤ 10 |  | 1 to 3 | 3 to 10
C[C@H](Sc1nncn1C)c1cccc(NC(=O)c2nc(C(F)(F)F)cs2)c1 [Compound 74, N-[3-[(1 S)-1-[(4-methyl-1,2,4-triazol-3-yl)sulfanyl]ethyl]phenyl]-4-(trifluoromethyl)thiazole-2-carboxamide] | ≤ 1 |  | 0.301 to 1 | 1 to 3
C[C@H](Sc1nncn1C)c1cccc(NC(=O)c2cccc(OC(F)(F)F)c2)c1 [Compound 79, (S)-N-(3-(1-((4-methyl-4H-1,2,4-triazol-3-yl)thio)ethyl)phenyl)-3-(trifluoromethoxy)benzamide] | ≤ 10 |  | 3 to 10 | 3 to 10
Cc1cncc(C(=O)Nc2cccc([C@H](C)Sc3nncn3C)c2)n1 [Compound 82, (S)-6-methyl-N-(3-(1-((4-methyl-4H-1,2,4-triazol-3-yl)thio)ethyl)phenyl)pyrazine-2-carboxamide] | ≤ 10 |  | 1 to 3 | 3 to 10
C[C@H](Sc1nncn1C)c1cccc(NC(=O)c2cc(C(F)(F)F)c3ccccc3n2)c1 [Compound 83, (S)-N-(3-(1-((4-methyl-4H-1,2,4-triazol-3-yl)thio)ethyl)phenyl)-4-(trifluoromethyl)quinoline-2-carboxamide] | ≤ 10 |  | 1 to 3 | 3 to 10
C[C@H](Sc1nncn1C)c1cccc(NC(=O)c2cc(NS(=O)(=O)CCO)ccn2)c1 [Compound 86, 4-(2-hydroxyethylsulfonylamino)-N-[3-[(1S)-1-[(4-methyl-1,2,4-triazol-3-yl)sulfanyl]ethyl]phenyl]pyridine-2-carboxamide] | ≤ 10 |  | 3 to 10 | > 10
C[C@H](Sc1nncn1C)c1cccc(NC(=O)c2cccc(CF)n2)c1 [Compound 87, 6-(fluoromethyl)-N-[3-[(1S)-1-[(4-methyl-1,2,4-triazol-3-yl)sulfanyl]ethyl]phenyl]pyridine-2-carboxamide] | ≤ 10 |  | 1 to 3 | 1 to 3
C[C@H](Sc1nncn1C)c1cccc(NC(=O)c2cccc3scnc23)c1 [Compound 88, N-[3-[(1 S)-1-[(4-methyl-1,2,4-triazol-3-yl)sulfanyl]ethyl]phenyl]-1,3-benzothiazole-4-carboxamide] | ≤ 10 |  | 1 to 3 | 3 to 10
